Experimental findings from patent publication US11053251B2, “GPR35 modulators” (Prometheus Biosciences, Inc., priority 2019, dated 2021) are described below.

Human GPR35, sequence (Q9HC97 whole entry S294R): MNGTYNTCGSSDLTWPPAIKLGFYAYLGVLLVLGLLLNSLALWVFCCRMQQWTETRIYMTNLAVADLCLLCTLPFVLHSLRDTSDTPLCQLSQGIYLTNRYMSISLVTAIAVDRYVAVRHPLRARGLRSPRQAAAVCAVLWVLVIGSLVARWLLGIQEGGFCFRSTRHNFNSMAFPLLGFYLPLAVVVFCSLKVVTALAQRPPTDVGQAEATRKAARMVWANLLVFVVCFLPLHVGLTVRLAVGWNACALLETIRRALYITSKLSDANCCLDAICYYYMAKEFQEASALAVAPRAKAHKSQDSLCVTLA

One assay addresses Human GPR35 (Homo sapiens, UniProt Q9HC97, S294R). Kind of assay: Alternative Beta-Arrestin Assay (JumpIn 294R Tango U2OS cells, LiveBLAzer-FRET B/G). Format: cell-based. The following applies: Human GPR35 expressing JumpIn 294R Tango U2OS cells, 5 hours treatment. The procedure: Human GPR35 expressing JumpIn (Thermo Fisher) 294R Tango U2OS cells were plated in 384-well format in clear bottom plates at a cell density of 10,000 cells/well and allowed to grow overnight. The next day, cells were treated with serially diluted test compounds for 5 hours. LiveBLAzer-FRET B/G (CCF4-AM) detection reagents were then added and cells were allowed to incubate for 2 hours before reading plates on a BioTek Cytation 5 plate reader. Zaprinast was used as a positive control for dose-response curves. In order to determine EC50 values, data w ere fit to a four-parameter dose-response curves.
Turning to `O=C(O)c1ccc(-c2ccc(-c3nc4[nH]nnc4c(=O)[nH]3)c(OC3CCCC3)c2)cc1O` [Compound 201, 3′-(Cyclopentyloxy)-3-hydroxy-4′-(7-oxo-6,7-dihydro-3H-[1,2,3]triazolo[4,5-d]pyrimidin-5-yl)-[1,1′-biphenyl]-4-carboxylic acid], the EC50 is no more than 10 µM. Same read-out and setting: for `CCOc1cc(-c2cccc(/C=C(\C)C(=O)O)c2)ccc1-c1nc2[nH]nnc2c(=O)[nH]1` (single isomer, unassigned) [Compound 237, (E)-3-(3′-ethoxy-4′-(7-oxo-6,7-dihydro-3H-[1,2,3]triazolo[4,5-d]pyrimidin-5-yl)-[1,1′-biphenyl]-3-yl)-2-methylacrylic acid] the value was no more than 10 µM; for `CCOc1cc(-c2cccc(CC3(C(=O)O)CCC3)c2)ccc1-c1nc2[nH]nnc2c(=O)[nH]1` [Compound 246, 1-((3′-ethoxy-4′-(7-oxo-6,7-dihydro-3H-[1,2,3]triazolo[4,5-d]pyrimidin-5-yl)-[1,1′-biphenyl]-3-yl)methyl)cyclobutane-1-carboxylic acid], no more than 10 µM; for `CCOc1cc(-c2cccc(CC(=O)O)c2)ccc1-c1nc2[nH]nnc2c(=O)[nH]1` [Compound 295, 2-(3′-ethoxy-4′-(7-oxo-6,7-dihydro-3H-[1,2,3]triazolo[4,5-d]pyrimidin-5-yl)-[1,1′-biphenyl]-3-yl)acetic acid], no more than 10 µM.

As for `COc1cc(-c2nc3[nH]nnc3c(=O)[nH]2)cc(OC)c1-c1ccc(C(=O)O)cc1` [Compound 196, 2′,6′-Dimethoxy-4′-(7-oxo-6,7-dihydro-3H-[1,2,3]triazolo[4,5-d]pyrimidin-5-yl)-[1,1′-biphenyl]-4-carboxylic acid], the EC50 is no more than 10 µM. The molecule `CCOc1cc(-c2cccc(CC(CC)C(=O)O)c2)ccc1-c1nc2[nH]nnc2c(=O)[nH]1` (single isomer, unassigned) [Compound 241, 2-((3′-ethoxy-4′-(7-oxo-6,7-dihydro-3H-[1,2,3]triazolo[4,5-d]pyrimidin-5-yl)-[1,1′-biphenyl]-3-yl)methyl)butanoic acid] had an EC50 of no more than 10 µM.

On to `CCOc1cc(-c2cccc([C@H]3C[C@@H]3C(=O)O)c2)ccc1-c1nc2[nH]nnc2c(=O)[nH]1` (racemic) [Compound 277, rac-trans-2-(3′-ethoxy-4′-(7-oxo-6,7-dihydro-3H-[1,2,3]triazolo[4,5-d]pyrimidin-5-yl)-[1,1′-biphenyl]-3-yl)cyclopropane-1-carboxylic acid], for which the EC50 was no more than 10 µM.

`CCOc1cc(-c2cc(F)cc(O[C@@H](C)C(=O)O)c2)ccc1-c1nc2[nH]nnc2c(=O)[nH]1` (single isomer, unassigned) [Compound 263]: the EC50 was no more than 10 µM. With `CCOc1cc(-c2ccc(OC(C)C)c(CC(C)C(=O)O)c2)ccc1-c1nc2[nH]nnc2c(=O)[nH]1` (single isomer, unassigned) [Compound 313, 3-(3′-ethoxy-4-isopropoxy-4′-(7-oxo-6,7-dihydro-3H-[1,2,3]triazolo[4,5-d]pyrimidin-5-yl)-[1,1′-biphenyl]-3-yl)-2-methylpropanoic acid], the EC50 was no more than 10 µM. As to `CCOc1cc(-c2cccc(C[C@H](O)C(=O)O)c2)ccc1-c1nc2[nH]nnc2c(=O)[nH]1` [Compound 282, (S)-3-(3′-ethoxy-4′-(7-oxo-6,7-dihydro-3H-[1,2,3]triazolo[4,5-d]pyrimidin-5-yl)-[1,1′-biphenyl]-3-yl)-2-hydroxypropanoic acid], the EC50 was no more than 10 µM. With `CCOc1cc(-c2cccc(N)c2)ccc1-c1nc2[nH]nnc2c(=O)[nH]1` [Compound 197, 5-(3′-Amino-3-ethoxy-[1,1′-biphenyl]-4-yl)-3,6-dihydro-7H-[1,2,3]triazolo[4,5-d]pyrimidin-7-one], the EC50 is no more than 10 µM.

Staying with this assay, now noted: at 5.6 μM; Table 2.
On to `CCOC(=O)C(C)(C)Cc1cccc(-c2ccc(-c3nc4[nH]nnc4c(=O)[nH]3)c(OCC)c2)c1` [Compound 242, ethyl 3-(3′-ethoxy-4′-(7-oxo-6,7-dihydro-3H-[1,2,3]triazolo[4,5-d]pyrimidin-5-yl)-[1,1′-biphenyl]-3-yl)-2,2-dimethylpropanoate], for which the “% inhibition at 5.6 μM” value is listed as 30% inhibition at.

For orientation: EC50 means the concentration that produces a half-maximal response. A lower EC50 goes with greater potency.
